Test results taken from US20080118580A1, “ADHESION INHIBITION OF FUNGI” (priority 2001, published 2008).

Tests used:
C. albicans = test: Growth test; assay type: cell-based, Candida albicans; conditions: for Growth rate: YPD medium, 30° C., over 10 hours, reference 0.55
Description: The growth rates were measured over 10 hours in the YPD medium already described above. The optical density was initially set at 0.1 OD and the cultures were incubated at 30° C.
Here it was assumed that an optical density of 1 measured at wavelength 600 nm corresponds to about 10^7 cells.

[1] = system: Candida albicans strain SC5314; test: Test for inhibition of the formation of hyphae; assay type: cell-based; conditions: for hyphae formation (in words): at the concentrations used
Description: An initial culture of the Candida albicans strain SC5314 was grown overnight in minimal medium (0.67% yeast nitrogen base w/o amino acids (Difco), 2% glucose) up to an optical density of 1 at 600 nm, and washed once in sterile double-distilled H2O. For the induction of hyphae, 100 μl to 900 μl of YPS (1% yeast extract, 2% peptone, 10% horse serum (Sigma)) were added, and incubated at 37° C. with shaking. To test the inhibitory action of different substances, farnesol (50 μl/l), propolis extract (200 ppm in ethanolic solution, Sigma, P 5182, origin: Alsace, France) or fucoidan (2 mg/ml, Sigma, F 5631) were added to the medium. A culture of 100 μl of cell suspension in 900 μl of YPD medium (1% yeast extract, 2% peptone, 2% glucose) which was incubated at 30° C. with shaking was used as the control. To quantify the formation of hyphae, 2×100 cells were counted under the microscope (Zeiss Axioscope) every 20 min. and the germ tubes formed calculated as a percentage of the total cells.

Candida albicans = test: Wash tests, contamination with Candida albicans; assay type: cell-based; conditions: addition of farnesol to detergent, versus same detergent without
Description: The wash tests were performed in standard domestic washing machines (Miele W 918 Novotronic), which had previously been disinfected, in the delicates program at 30° C. The fungal cells were applied onto textile supports (polyamid, 2.5×2.5 cm) (2×10^5 cells/microbe support) and washed together with 3.5 kg of disinfected fill laundry with the detergent formulae. As the control, the wash was performed with the same detergent without farnesol. After the washing and drying in the air, both the residual microbial burden and also the microbial transfer to other, sterile textiles were determined.
The experiments were performed with the detergents A (addition of farnesol) and B (reference).
75 ml of the liquid detergent is added; this corresponds to a farnesol concentration of 20 ppm in the wash liquor.

[2] = system: C. albicans culture (strain SC5314); test: Adhesion test on textiles (tetrazolium blue staining, relative light reflection); assay type: cell-based, Candida albicans
Description: For assessment of the inhibitory action of different substances on the adhesion of fungi, a procedure with which this adhesion to textiles can be determined semi-quantitatively was developed.
A 50 ml C. albicans culture (strain SC5314) was grown overnight with shaking in a conical flask at 30° C. up to an optical density (OD) of ca. 1 (measured at 600 nm with a spectrophotometer). After washing once in water, the cells were again incubated for one hour at 30° C. with shaking. Next, 2.5 ml of the culture were diluted in 22.5 ml of YPD medium (1% yeast extract, 2% peptone, 2% glucose) or YPS medium (1% yeast extract, 2% peptone, 10% horse serum). The YPD cultures were incubated with shaking for 2 hours at 30° C., and the YPS cultures for 2 hours at 37° C. for the induction of hyphae.
As desired, test substance was added to the media. In addition a 2.5×2.5 cm piece of test fabric (polyester microfibers) was added to the media. After incubation, the textile pieces were washed three times with wash liquor (Perwoll powder, 12 ml/l water) and twice with water (5 min. with shaking each time), then transferred to a 6-well plate and covered with a layer of YPD-tetrazolium blue agar (1% yeast extract, 2% peptone, 2% glucose, 1.5% agar, 0.5 mg/ml tetrazolium blue chloride).
The depth of the blue coloration due to enzymatic conversion of the dyestuff tetrazolium blue chloride (3,3′-[3,3′-dimethoxy(1,1′-biphenyl)-4,4′-diyl]-bis-[2,5-diphenyl-2H-tetrazolium] dichloride (Sigma, T4375) by cellular dehydrogenases of adhered C. albicans served as a measure for the number of adhered Candida cells and was measured by measurement of the relative light reflection (measurement geometry d/8°) with a differential calorimeter (Dr. Lange Micro Color). The instrument was calibrated in accordance with the manufacturer's instructions. For this, the textile patches were dissolved out from the agar and subjected to the measurement with the differential calorimeter. In accordance with DIN 5033, the differential calorimeter determines the diffuse reflection of the samples at an angle of 8°.

[3] = description, no concentration given

CCO [Ethanol]
Growth rate (C. albicans; 2 wt. %): 0.5 h⁻¹

CC(C)=CCC/C(C)=C/CO [Geraniol, geraniol]
Effective inhibitory concentration (hyphae formation inhibiting concentration) [1]: 0.01% wt. %

fucoidan
cell growth (in words) (C. albicans; [3]): not affected
Number of hyphal cells formed ([1]; YPS + fucoidan 0.2 wt. %, t 0 min, YPS alone 0): 0
Number of hyphal cells formed ([1]; YPS + fucoidan 0.2 wt. %, t 20 min, YPS alone 0): 0
Number of hyphal cells formed ([1]; YPS + fucoidan 0.2 wt. %, t 40 min, YPS alone 15): 4
Number of hyphal cells formed ([1]; YPS + fucoidan 0.2 wt. %, t 60 min, YPS alone 75): 25
hyphae formation (in words) [1]: marked reduction
formation of hyphae by Candida albicans (in words) [1, 3]: significantly reduced

O=C(O)/C=C/c1ccccc1 [Trans-cinnamic acid, trans-cinnamic acid]
Effective inhibitory concentration (hyphae formation inhibiting concentration) [1]: 0.01% wt. %

CC=Cc1ccc(OC)cc1 [Anethole, 1-methoxy-4-(1-propenyl)benzene]
Effective inhibitory concentration (hyphae formation inhibiting concentration) [1]: 0.10% wt. %

CC(C)=CCCC(C)=CCCC(C)=CCO [Farnesol, farnesol]
cross contamination of other laundry items (in words) (Candida albicans): completely prevented
residual microbial burden (in words) (Candida albicans): drastically reduced
Relative light reflection ([2]; 0.0025 wt. % test substance, polyester microfiber fabric, higher reflection = fewer adhered cells (YPD reference 48.7, YPS 44.7)): 49.3
adhesion of fungi to textiles (in words) ([2]; concentrations of Table 1): reduction in the adhesion of fungi to textiles down to almost complete inhibition of the adhesion
adhesion of fungal cells to surfaces (in words) ([2]; in solutions which contain the substance): scarcely or not at all
Growth rate (C. albicans; 0.0025 wt. %): 0.51 h⁻¹
Number of hyphal cells formed ([1]; YPS + farnesol 0.005 wt. %, t 0 min, 37° C., YPS alone 0): 0
Number of hyphal cells formed ([1]; YPS + farnesol 0.005 wt. %, t 20 min, YPS alone 0): 0
Number of hyphal cells formed ([1]; YPS + farnesol 0.005 wt. %, t 40 min, YPS alone 15): 0
Number of hyphal cells formed ([1]; YPS + farnesol 0.005 wt. %, t 60 min, YPS alone 75): 3
hyphae formation (in words) [1]: essentially complete prevention
